Source: the NIST ThermoML archive (doi:10.1016/j.jct.2014.07.011)
Numbers after ± are expanded uncertainties.

Columns and labels:
[1] = Crystal; DTA
[2] = Molar enthalpy of transition or fusion; settings: Crystal; DSC

- Normal melting temperature [1]: 208.42 ± 1.1 °C
- Molar enthalpy of transition or fusion [2]: 4.96 ± 0.311 kcal/mol
Structure (SMILES): CC(=O)S[C@@H]1CC2=CC(=O)CC[C@]2(C)[C@H]2CC[C@@]3(C)[C@@H](CC[C@@]34CCC(=O)O4)[C@H]12 [spironolactone]
